Test results published in PMC5697638, “Identification of a Potent Phosphoinositide 3‐Kinase Pan Inhibitor Displaying a Strategic Carboxylic Acid Group and Development of Its Prodrugs” (Chemmedchem, 2017).

Test: stability in mouse plasma
Format: in vitro ADME
Settings: mouse, mouse plasma, 50 μM substrate, 30 min incubation, 37 °C; read-out: Mouse plasma t 1/2
Experimental: Twelve esters were prepared (see the Experimental Section for their synthesis and the Supporting Information for chromatographic methods) and evaluated in terms of metabolic stability. For this task, a combined approach based on microsomal and plasmatic stability assays was exploited considering the relevance of the plasmatic and hepatic tissues in esterase activity. Microsomal stability of the selected esters was evaluated by monitoring the disappearance of the substrate incubated in rat liver microsomes (RLM) at 50 μM concentration, in the presence of NADPH. In Table 4, the percentage of the remaining substrate, after incubation (t=60 min), with respect to the initial amount is reported. Overall, the compounds underwent a relevant metabolic transformation, and the substrate depletion ranged from 0 (for 76) to 100 % (for 70). This is mainly due to hydrolysis of the ester function, whereas the metabolites arising from the oxidation catalyzed by the NADPH‐dependent monooxygenase system were negligible from a quantitative point of view. Indeed, the main metabolite formed during the incubation of the esters was corresponding carboxyl derivative 37. […] Moreover, whereas CH2‐pyridin‐4‐yl ester 70 was completely metabolized, corresponding benzyl derivative 65 and piperonyl derivative 72 were more hydrolytically stable, and their residual substrates were 53 and 83 %, respectively. The hydrolytic stability of the selected esters was also evaluated by monitoring the depletion of the substrate incubated at a 50 μM concentration in mouse plasma over a period of 30 min. As expected, the plasmatic metabolic fate of the esters was characterized by the formation of 37 as the only metabolite (see Figure S4). The rate constant k [min^−1], derived for the substrate peak area versus time curve (single‐exponential decay equation—GraphPad Prism software, Inc., San Diego, CA (USA); see Figure S5) was used to calculate the in vitro half‐life t 1/2 [min], and the values are reported in Table 4. […]
Stability of PI3K inhibitors in mouse plasma
An aliquot of 460 µL of blank plasma spiked with substrate (50 µM, final concentration, DMSO 5%) was incubated at 37 °C for 30 minutes. Aliquots (70 µL) of the incubation took at 0-2-5-10-20, and 30 minutes were diluted with 140 µL of acetonitrile, homogenized, and centrifuged at 13,000 rpm for five minutes. Supernatants (20 µL) were injected onto HPLC.
A Shimadzu HPLC system (Shimadzu, Kyoto, Japan), consisting of two LC-10AD Vp module pumps, an SLC-10A Vp system controller, an SIL-10AD Vp autosampler, and a DGU-14-A on-line degasser was used for the analysis. All the chromatographic separations were performed on a Phenomenex Luna C18 5µm (150 x 4.6 mm i.d.) (Phenomenex srl, Castel Bolognese, Italy) as a stationary phase protected by a Luna C18 SecurityGuard (Phenomenex srl). The SPD-M10Avp photodiode array detector was used to detect the analyte at 254 nm. LC Solution 1.24 software was used to process the chromatograms. Aliquots (20 µL) of supernatants obtained from incubations were injected onto the HPLC system and eluted with a mobile phase (flow rate: 1 mL/min) consisting of solvent A- 0.5% aqueous formic acid solution and solvent B- acetonitrile/methanol 80:20.
The eluants were filtered through a 0.45-µm pore size polyvinylidene difluoride membrane […]
The following gradients programs were used: […]

half-life at 50 µM: 13.3 min
SMILES: COC(=O)c1cccc(Cn2cc(-c3cccc4c(=O)cc(N5CCOCC5)[nH]c34)nn2)c1 [Compound 64, Methyl 3‐{[4‐(2‐morpholino‐4‐oxo‐1,4‐dihydroquinolin‐8‐yl)‐1H‐1,2,3‐triazol‐1‐yl]methyl}benzoate]
